Results from patent US20240279218A1 (Hoffmann-La Roche Inc., priority 2016, published 2024).
Where two headings read alike, the source gives them in different places.

Assays:
h-GABA-A α5β3γ2 [1] = target: T1, h-GABA-A α5β3γ2 (Homo sapiens (Human), UniProt P18507+P31644); assay: [3H]flumazenil competition binding assay, membranes of HEK293 cells expressing human GABAA receptors
Procedure, shortened: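 Membranes were prepared from HEK293 cells with transient human α5β3γ2 expression and assayed in Krebs-tris, pH 7.5. Bound radioactivity measured on filters by liquid scintillation.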

h-GABA-A α5β3γ2 [2] = target: T1, h-GABA-A α5β3γ2; assay: Two-electrode voltage clamp electrophysiology in Xenopus oocytes expressing GABAA receptors, modulation of GABA EC20 current; type: cell-based
Procedure, shortened: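 Values are % modulation of an EC20 GABA response, derived point by point from the ratio of compound-exposed versus control current traces (extremum taken, 100×(fold−1)). Recordings used oocytes injected with human α5, β3, γ2 mRNA, clamped at −80 mV at room temperature, at least 3 oocytes each.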

[3] = displacement of [3H]flumazenil 0.5 nM, HEK293 cells expressing human receptors, mean of two determinations, read-out: Ki h-GABA-A α5β3γ2
[4] = % modulation of GABA EC20 = 100*(Fold increase−1), Xenopus oocytes
[5] = Xenopus oocytes, GABA EC20, test compound at approx. 30 fold its Ki
[6] = reference compounds, GABAA receptor α5β3γ2, read-out: Ki α5-human
[7] = reference compounds, % modulation of GABA EC20
[8] = reference compounds, GABAA α5β3γ2 overexpressing oocytes, GABA EC20

Row | SMILES | Ki (h-GABA-A α5β3γ2 [1]; [3]) [nM] | Efficacy (GABA) % (h-GABA-A α5β3γ2 [2]; [4]) [%] | Fold increase h-GABA-A α5β3γ2 oocyte (h-GABA-A α5β3γ2 [2]; [5]) | Ki (h-GABA-A α5β3γ2 [1]; [6]) [nM] | Efficacy (GABA) % (h-GABA-A α5β3γ2 [2]; [7]) [%] | Fold increase h-GABA-A α5β3γ2 oocyte (h-GABA-A α5β3γ2 [2]; [8])
1 | CC[C@@H](CC#N)NC(=O)c1ccc(OCc2c(-c3ccc(C)nc3)noc2C)nn1 [Example 88, (S)—N-(1-cyanobutan-2-yl)-6-((5-methyl-3-(6-methylpyridin-3-yl)isoxazol-4-yl)methoxy)pyridazine-3-carboxamide] | 40.9 | 68 | 1.68 | – | – | –
2 | Cc1ccc(-c2noc(C)c2COc2ccc(C(=O)NCC3(O)COC3)nn2)cn1 [Example 51, N-((3-hydroxyoxetan-3-yl)methyl)-6-((5-methyl-3-(6-methylpyridin-3-yl)isoxazol-4-yl)methoxy)pyridazine-3-carboxamide] | 10.8 | 57 | 1.57 | – | – | –
3 | Cc1ccc(-c2noc(C)c2COc2ccc(C(=O)NC3CCOCC3)cn2)nn1 [Example 108, 6-((5-methyl-3-(6-methylpyridazin-3-yl)isoxazol-4-yl)methoxy)-N-tetrahydropyran-4-yl-pyridine-3-carboxamide] | 0.4 | 20 | 1.2 | – | – | –
4 | Cc1ccc(-c2noc(C)c2COc2cnc(C(=O)N[C@@H]3CCCOC3)cn2)cn1 [Example 98, (R)-5-((5-methyl-3-(6-methylpyridin-3-yl)isoxazol-4-yl)methoxy)-N-(tetrahydropyran-3-yl)pyrazine-2-carboxamide] | 62.2 | 76 | 1.76 | – | – | –
5 | Cc1ccc(-c2noc(C)c2COc2ccc(C(=O)N3CCC34COC4)nn2)cn1 [Example 63, (6-((5-methyl-3-(6-methylpyridin-3-yl)isoxazol-4-yl)methoxy)pyridazin-3-yl)(6-oxa-1-azaspiro[3.3]heptan-1-yl)methanone] | 4.6 | 79 | 1.79 | – | – | –
6 | Cc1ccc(-c2noc(C)c2COc2ccc(C(=O)NC3(C)CCCC3)nn2)cn1 [Example 114, 6-((5-methyl-3-(6-methylpyridin-3-yl)isoxazol-4-yl)methoxy)-N-(1-methylcyclopentyl)pyridazine-3-carboxamide] | 28.1 | 74 | 1.74 | – | – | –
7 | Cc1ccc(-c2noc(C)c2COc2cnc(C(=O)NCC(F)(F)F)cn2)cn1 [Example 78, 5-((5-methyl-3-(6-methyl-3-pyridyl)isoxazol-4-yl)methoxy)-N-(2,2,2-trifluoroethyl)pyrazine-2-carboxamide] | 24.3 | 42 | 1.42 | – | – | –
8 | Cc1ccc(-c2noc(C)c2COc2cc3c(cn2)C(=O)N(C2CCOCC2)C3)cn1 [Example 22, 6-((5-methyl-3-(6-methylpyridin-3-yl)isoxazol-4-yl)methoxy)-2-(tetrahydro-2H-pyran-4-yl)-1H-pyrrolo[3,4-c]pyridin-3(2H)-one] | 10.8 | 44 | 1.44 | – | – | –
9 | Cc1onc(-c2ccccn2)c1COc1ccc(C(=O)NC2CCOCC2)cn1 [RO-272, reference compound] | – | – | – | 1 | −32 | 0.68
10 | Cc1onc(-c2ccc(Cl)nc2)c1COc1ccc(C(=O)NC2CC3(COC3)C2)nn1 [Example 162, 6-((3-(6-chloropyridin-3-yl)-5-methylisoxazol-4-yl)methoxy)-N-(2-oxaspiro[3.3]heptan-6-yl)pyridazine-3-carboxamide] | 11.2 | 37 | 1.37 | – | – | –
11 | COc1ccc(-c2noc(C)c2COc2ccc(C(=O)N3CCS(=O)(=O)CC3)cn2)cn1 [Example 140, (1,1-dioxidothiomorpholino)(6-((3-(6-methoxypyridin-3-yl)-5-methylisoxazol-4-yl)methoxy)pyridin-3-yl)methanone] | 56 | 13 | 1.13 | – | – | –
12 | Cc1ccc(-c2noc(C)c2COc2ccc(C(=O)N[C@H]3C[C@H]4CC[C@H]3O4)nn2)cn1 (single isomer, unassigned) [Example 188] | 20.7 | 71 | 1.71 | – | – | –
13 | Cc1ccc(-c2noc(C)c2COc2ccc(C(=O)NC(C)(C)C)nn2)cn1 [Example 41, N-tert-butyl-6-((5-methyl-3-(6-methylpyridin-3-yl)isoxazol-4-yl)methoxy)pyridazine-3-carboxamide] | 19.4 | 104 | 2.04 | – | – | –
14 | O=C(NC1CC2(COC2)C1)c1ccc(OCc2c(-c3ccc(Cl)nc3)noc2C2CC2)nn1 [Example 178, 6-((3-(6-chloropyridin-3-yl)-5-cyclopropylisoxazol-4-yl)methoxy)-N-(2-oxaspiro[3.3]heptan-6-yl)pyridazine-3-carboxamide] | 42.9 | 73 | 1.73 | – | – | –
15 | Cc1ccc(-c2noc(C)c2COc2ccc(C(=O)N3CC4(COC4)C3)nn2)cn1 [Example 61, (6-((5-methyl-3-(6-methylpyridin-3-yl)isoxazol-4-yl)methoxy)pyridazin-3-yl)(2-oxa-6-azaspiro[3.3]heptan-6-yl)methanone] | 7.1 | 58 | 1.58 | – | – | –
16 | Cc1ccc(-c2noc(C)c2COc2ccc(C(=O)NC3(C)CCC3)nn2)cn1 [Example 118, 6-((5-methyl-3-(6-methylpyridin-3-yl)isoxazol-4-yl)methoxy)-N-(1-methylcyclobutyl)pyridazine-3-carboxamide] | 12.3 | 88 | 1.88 | – | – | –
17 | Cc1ccc(-c2noc(C)c2COc2ccc(C(=O)NC3CCCC(O)C3)nn2)cn1 (stereo not drawn) [Example 156, N-(3-hydroxycyclohexyl)-6-((5-methyl-3-(6-methylpyridin-3-yl)isoxazol-4-yl)methoxy)pyridazine-3-carboxamide] | 7.8 | 98 | 1.98 | – | – | –
18 | Cc1ccc(-c2noc(C)c2COc2ccc(C(=O)NCC3COC3)nn2)cn1 [Example 50, 6-((5-methyl-3-(6-methyl-3-pyridyl)isoxazol-4-yl)methoxy)-N-(oxetan-3-ylmethyl)pyridazine-3-carboxamide] | 7.6 | 72 | 1.72 | – | – | –
19 | CCC[C@@H](CO)NC(=O)c1ccc(OCc2c(-c3ccc(N(C)C)nc3)noc2C)nc1 [Example 141, (S)-6-((3-(6-(dimethylamino)pyridin-3-yl)-5-methylisoxazol-4-yl)methoxy)-N-(1-hydroxypentan-2-yl)nicotinamide] | 49.5 | 243 | 3.43 | – | – | –
20 | CCc1onc(-c2ccc(C)nc2)c1COc1ccc(C(=O)NC2CCS(=O)(=O)CC2)cn1 [Example 120, N-(1,1-dioxidotetrahydro-2H-thiopyran-4-yl)-6-((5-ethyl-3-(6-methylpyridin-3-yl)isoxazol-4-yl)methoxy)pyridine-3-carboxamide] | 52.1 | 160 | 2.6 | – | – | –
21 | Cc1ccc(-c2noc(C)c2COc2ccc(C(=O)N3CC(F)(F)C3)nn2)cn1 [Example 47, (3,3-difluoroazetidin-1-yl)(6-((5-methyl-3-(6-methylpyridin-3-yl)isoxazol-4-yl)methoxy)pyridazin-3-yl)methanone] | 13 | 68 | 1.68 | – | – | –
22 | Cc1ccc(-c2noc(C)c2COc2ccc(C(=O)NC3CC4(COC4)C3)nn2)cn1 [Example 100, 6-((5-methyl-3-(6-methylpyridin-3-yl)isoxazol-4-yl)methoxy)-N-(2-oxaspiro[3.3]heptan-6-yl)pyridazine-3-carboxamide] | 8.5 | 70 | 1.7 | – | – | –
23 | Cc1ccc(-c2noc(C)c2COc2ccc(C(=O)NC(C)C)nn2)cn1 [Example 38, N-isopropyl-6-((5-methyl-3-(6-methylpyridin-3-yl)isoxazol-4-yl)methoxy)pyridazine-3-carboxamide] | 7.5 | 84 | 1.84 | – | – | –
24 | CCO[C@H]1C[C@@H](NC(=O)c2ccc(OCc3c(-c4ccc(C)nc4)noc3C)nn2)C1 [Example 171, cis-N-(3-ethoxycyclobutyl)-6-((5-methyl-3-(6-methylpyridin-3-yl)isoxazol-4-yl)methoxy)pyridazine-3-carboxamide] | 18.1 | 72 | 1.72 | – | – | –
25 | Cc1onc(-c2ccc(Cl)cn2)c1COc1ccc(C(=O)NC2CCOCC2)cn1 [RO-301, reference compound] | – | – | – | 0.2 | −18 | 0.82
26 | Cc1ccc(-c2noc(C)c2COc2ccc(C(=O)NC3CCOCC3)nn2)cn1 [Example 8, 6-((5-methyl-3-(6-methylpyridin-3-yl)isoxazol-4-yl)methoxy)-N-(tetrahydropyran-4-yl)pyridazine-3-carboxamide] | 8.7 | 97 | 1.97 | – | – | –
